Results on 20 molecules are retold here after patent US20230091047A1 (priority 2019, published 2023).

The subject of data set [1] is HBV (HepG2.117 cell line, inducibly HBV producing). Briefly: Anti-HBV activity: intracellular HBV DNA by real-time PCR in HepG2.117 cells after 3 days of treatment. The data set is classed as cell-based, hepatitis B virus. The method, boiled down: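 Antiviral effect is expressed through intracellular HBV DNA levels, determined by real-time PCR with a virus-specific probe. These levels were measured after 3 days of treatment with compound dilutions, in HepG2.117 cells induced to replicate HBV.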
For orientation: In qPCR the cycle at which signal appears reflects the starting amount.

Data set [2] is described as follows: in vitro. As to conditions: human, HepG2 or HepG2.117 cells, ATPlite, mean value. The data set is classed as cell-based. An outline of the steps: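 Luminescent ATP quantitation served as the viability endpoint following a 3- or 4-day incubation with test compounds.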
The mark [3] stands for this setting: Hepatitis B virus, HepG2.117, 72 h, HepG2.117 cells, 3 days of treatment, intracellular HBV DNA by real-time PCR; mean value; read-out: EC50 (μM, mean value).
Where [4] appears, read: 3-days incubation (unmarked values).
The mark [5] stands for this setting: Hepatitis B virus, HepG2.117, 72 h, HepG2.117 cells, intracellular HBV DNA by real-time PCR, 3 days of treatment, mean value; read-out: EC50 (μM, mean value).
The mark [6] stands for this setting: 3-days incubation (not marked with *).

The structures appear in SMILES notation. Read-outs that look alike come from different tables or passages of the source.

Usually EC50 stands for the midpoint of the concentration-response curve. As a reminder, the CC50 is the concentration that lowers cell viability or growth by half.

Consider `COc1ccccc1-n1c(N[C@@H](C)C(F)(F)F)nc2c(c1=O)CCN(C(=O)c1ccc(Cl)c(Cl)c1)C2` [Compound C86, 7-(3,4-dichlorobenzoyl)-3-(2-methoxyphenyl)-2-{[(2S)-1,1,1-trifluoropropan-2-yl]amino}-5,6,7,8-tetrahydropyrido[3,4-d]pyrimidin-4(3H)-one], for which, in data set [1] (setting [3]), the EC50 was 1.44 µM. In data set [2] (setting [4]), the midpoint of cytotoxicity, the CC50 at 3 days, lay at 25.2 µM.
Regarding `CNC(=O)c1ccc(-n2c(N(C)Cc3nc(C)n[nH]3)nc3c(c2=O)C[C@@H](C)N(C(=O)c2ccc(Cl)c(Cl)c2)C3)cc1` [Compound C595], the concentration giving a half-maximal response (EC50) in data set [1] (setting [5]) is > 25 µM. The half-maximal cytotoxic concentration (CC50) at 3 days in data set [2] (setting [6]) was > 50 µM.
As for `CNC(=O)c1ccc(-n2c(NCc3c[nH]c4ccc(OC)cc34)nc3c(c2=O)C[C@@H](C)N(C(=O)c2ccc(Cl)c(Cl)c2)C3)cc1` [Compound C275, 4-[(6R)-7-(3,4-dichlorobenzoyl)-2-{[(5-methoxy-1H-indol-3-yl)methyl]amino}-6-methyl-4-oxo-5,6,7,8-tetrahydropyrido[3,4-d]pyrimidin-3(4H)-yl]-N-methylbenzamide], the 50% effective concentration (EC50) in data set [1] (setting [3]) came out at 1.58 µM. Besides, the CC50 at 3 days in data set [2] (setting [4]) is > 50 µM.
In the case of `CNC(=O)c1ccc(-n2c(NC[C@H](C)c3cccc(OC)c3)nc3c(c2=O)C[C@@H](C)N(C(=O)c2ccc(Cl)c(Cl)c2)C3)cc1` (single isomer, unassigned) [Compound C436a], the EC50 in data set [1] (setting [5]) came out at 0.99 µM. For the same molecule, the 50% cytotoxic concentration (CC50) at 3 days in data set [2] (setting [6]) came out at 22.3 µM.
With `COc1ccc(CNc2nc3c(c(=O)[nH]2)CCN(C(=O)c2ccc(C(F)(F)F)cc2)C3)cc1` [Compound C118, 2-{[(4-methoxyphenyl)methyl]amino}-7-[4-(trifluoromethyl)benzoyl]-5,6,7,8-tetrahydropyrido[3,4-d]pyrimidin-4(3H)-one], in data set [1] (setting [3]), the EC50 amounted to 22 µM. Besides, half-maximal cytotoxicity in data set [2] (setting [4]) (CC50 at 3 days) was put at 39 µM.
Turning to `CNC(=O)c1ccc(-n2c(NCc3cccnc3)nc3c(c2=O)C[C@@H](C)N(C(=O)c2ccc(Cl)c(Cl)c2)C3)cc1` [Compound C378], the EC50 in data set [1] (setting [5]) came to 5.73 µM. In data set [2] (setting [6]), the CC50 at 3 days was > 50 µM.
In the case of `COc1ccc(CNc2nc3c(c(=O)[nH]2)CCN(C(=O)c2ccc(Br)c(Br)c2)C3)cc1` [Compound C80, 7-(3,4-dibromobenzoyl)-2-{[(4-methoxyphenyl)methyl]amino}-5,6,7,8-tetrahydropyrido[3,4-d]pyrimidin-4(3H)-one], the EC50 in data set [1] (setting [3]) is 2.02 µM. Also, in data set [2] (setting [4]), the CC50 at 3 days was > 50 µM.
As for `CNC(=O)c1ccc(-n2c(NC(C)C)nc3c(c2=O)C[C@@H](C)N(C(=O)c2ccc(C)c(F)c2)C3)cc1` [Compound C515], the concentration giving a half-maximal response (EC50) in data set [1] (setting [5]) amounted to 1.14 µM. Further, the 50% cytotoxic concentration (CC50) at 3 days in data set [2] (setting [6]) is > 50 µM.
Turning to `CNC(=O)[C@H]1CC[C@@H](n2c(N[C@@H](C)c3ccc(C(F)(F)F)cc3)nc3c(c2=O)C[C@@H](C)N(C(=O)c2ccc(Cl)c(Cl)c2)C3)CC1` [Compound C644], in data set [1] (setting [5]), the EC50 came to 0.23 µM. The midpoint of cytotoxicity in data set [2] (setting [6]), the CC50 at 3 days, lay at 7.5 µM.
Consider `CC(C)Nc1nc2c(c(=O)n1-c1ccc(S(C)(=O)=O)cc1)CCN(C(=O)c1cc3ccccc3s1)C2` [Compound C182, 7-(1-benzothiophene-2-carbonyl)-3-[4-(methanesulfonyl)phenyl]-2-[(propan-2-yl)amino]-5,6,7,8-tetrahydropyrido[3,4-d]pyrimidin-4(3H)-one], for which the EC50 in data set [1] (setting [3]) came out at 3.14 µM. In addition, the CC50 at 3 days in data set [2] (setting [4]) is > 50 µM.
With `COc1ccc(Cn2c(N)nc3c(c2=O)CCN(C(=O)c2ccc(Cl)c(Cl)c2)C3)cc1` [Compound C76, 2-amino-7-(3,4-dichlorobenzoyl)-3-[(4-methoxyphenyl)methyl]-5,6,7,8-tetrahydropyrido[3,4-d]pyrimidin-4(3H)-one], the EC50 in data set [1] (setting [3]) was 9.63 µM. In data set [2] (setting [4]), the cytotoxic concentration (CC50) at 3 days came to 7.1 µM.
Take `CNC(=O)c1ccc(-n2c(N[C@@H](C)c3ccc(OC)c(F)c3)nc3c(c2=O)C[C@@H](C)N(C(=O)c2ccc(Cl)c(Cl)c2)C3)cc1` (single isomer, unassigned) [Compound C416b]: the EC50 in data set [1] (setting [5]) was determined as 0.06 µM. The molecule also came in with a cytotoxic concentration (CC50) at 3 days in data set [2] (setting [6]) of 34.5 µM.
Take `COc1ccccc1-n1c(NCc2cscn2)nc2c(c1=O)CCN(C(=O)c1ccc(Cl)c(Cl)c1)C2` [Compound C16, 7-(3,4-dichlorobenzoyl)-3-(2-methoxyphenyl)-2-{[(1,3-thiazol-4-yl)methyl]amino}-5,6,7,8-tetrahydropyrido[3,4-d]pyrimidin-4(3H)-one]: the 50% effective concentration (EC50) in data set [1] (setting [3]) came to 2.29 µM. Besides, the CC50 at 4 days in data set [2] (4-days incubation (values marked with *)) turned out to be 45.3 µM.
As to `CC(C)Nc1nc2c(c(=O)n1-c1cccc3c1CNC3=O)C[C@@H](C)N(C(=O)c1ccc(Cl)c(Cl)c1)C2` [Compound C323, (6R)-7-(3,4-dichlorobenzoyl)-6-methyl-3-(1-oxo-2,3-dihydro-1H-isoindol-4-yl)-2-[(propan-2-yl)amino]-5,6,7,8-tetrahydropyrido[3,4-d]pyrimidin-4(3H)-one], the concentration giving a half-maximal response (EC50) in data set [1] (setting [3]) is 0.35 µM. For the same molecule, the CC50 at 3 days in data set [2] (setting [4]) is > 50 µM.
In the case of `CNC(=O)c1ccc(-n2c(NC(C)C)nc3c(c2=O)C[C@@H](C)N(C(=O)c2cc(Br)cc(C(F)(F)F)c2)C3)cc1` [Compound C602], the EC50 in data set [1] (setting [5]) worked out at 0.38 µM. Further, the cytotoxic concentration (CC50) at 3 days in data set [2] (setting [6]) is > 25 µM.
Consider `COc1ccc(CNc2nc3c(c(=O)n2C2CCCC2)CCN(C(=O)c2ccc(Cl)c(Cl)c2)C3)cc1` [Compound C73, 3-cyclopentyl-7-(3,4-dichlorobenzoyl)-2-{[(4-methoxyphenyl)methyl]amino}-5,6,7,8-tetrahydropyrido[3,4-d]pyrimidin-4(3H)-one], for which the half-maximal effective concentration (EC50) in data set [1] (setting [3]) stood at 9.37 µM. Also, in data set [2] (setting [4]), the CC50 at 3 days was > 50 µM.
In the case of `CNC(=O)c1ccc(-n2c(N3CC[C@H]3c3ccccc3)nc3c(c2=O)C[C@@H](C)N(C(=O)c2ccc(Cl)c(Cl)c2)C3)cc1` (single isomer, unassigned) [Compound C349, 4-[(6R)-7-(3,4-dichlorobenzoyl)-6-methyl-4-oxo-2-[(2*S)-2-phenylazetidin-1-yl]-5,6,7,8-tetrahydropyrido[3,4-d]pyrimidin-3(4H)-yl]-N-methylbenzamide], the EC50 in data set [1] (setting [3]) stood at 0.32 µM. Further, the CC50 at 3 days in data set [2] (setting [4]) came out at 31.7 µM.
`Cc1[nH]cnc1-c1ccc(-n2c(NC(C)C)nc3c(c2=O)C[C@@H](C)N(C(=O)c2ccc(Cl)c(Cl)c2)C3)cc1` [Compound C248, (6R)-7-(3,4-dichlorobenzoyl)-6-methyl-3-[4-(5-methyl-1H-imidazol-4-yl)phenyl]-2-[(propan-2-yl)amino]-5,6,7,8-tetrahydropyrido[3,4-d]pyrimidin-4(3H)-one]: the EC50 in data set [1] (setting [3]) stood at 0.13 µM. Moreover, the CC50 at 3 days in data set [2] (setting [4]) came to 31.1 µM.
The like results for `CC(C)Nc1nc2c(c(=O)n1-c1ccc(Br)cc1)C[C@@H](C)N(C(=O)c1ccc(Cl)c(Cl)c1)C2` [Compound C183, (6R)-3-(4-bromophenyl)-7-(3,4-dichlorobenzoyl)-6-methyl-2-[(propan-2-yl)amino]-5,6,7,8-tetrahydropyrido[3,4-d]pyrimidin-4(3H)-one] were, in that order, 0.21 µM and > 50 µM.
For `CC(C)Nc1nc2c(c(=O)n1-c1ccc(-c3cncs3)cc1)CCN(C(=O)c1ccc(Cl)c(Cl)c1)C2` [Compound C188, 7-(3,4-dichlorobenzoyl)-2-[(propan-2-yl)amino]-3-[4-(1,3-thiazol-5-yl)phenyl]-5,6,7,8-tetrahydropyrido[3,4-d]pyrimidin-4(3H)-one], in that order: 0.51 µM and > 50 µM.
